Source: patent US20150290357A1, “ANTIMICROBIAL ADHESIVE” (GeneJet Biotech, Inc., priority 2014, published 2015)

System: staphylococcus aureus
Experiment: Antimicrobial inhibition zone test based on ATCC6538p
Format: cell-based
Procedure: The antimicrobial adhesive prepared by the foregoing method is placed in a 7 ml glass vial and it is used to perform stability test for Ag/PP particulates, polymerization test for the cyanoacrylate monomers (as shown in Table 1), antimicrobial test for staphylococcus aureus (as shown in Table 2) and antimicrobial test for escherichia coli (as shown in Table 3).

Structure (SMILES): C=C(C#N)C(=O)OC(C)CCCCCC (centres unmarked) [Experiment C, 2-octyl cyanoacrylate]
- Increased in the diameter of inhibition zone (%) (compared to Control) (compared to Control (filter paper)): 16.4%
- Diameter of inhibition zone (on filter paper, ATCC6538p): 0.93 cm
